We go through eight compounds from ChEMBL document CHEMBL4373746, “Structural attributes influencing unbound tissue distribution” (Eur J Med Chem, 2020).

Data set [1] is described as follows: Drug concentration in total liver in Wistar Han rat at 1 to 2 mg/kg, iv infused for 10 to 20 hrs by LC-MS/MS analysis. Conditions: in vivo.
Data set [2] in a line: Unbound tissue partition coefficient, ratio of drug level in heart to plasma in Wistar Han rat at 1 to 2 mg/kg, iv infused for 10 to 20 hrs by LC-MS/MS analysis. The following applies: heart/plasma.
Data set [3] can be described thus: Fraction unbound in Wistar Han rat skeletal muscle at 2 uM incubated for 6 hrs by equilibrium dialysis method. A general note: In equilibrium dialysis only unbound substance equilibrates across the membrane.
Data set [4] in a line: Unbound tissue partition coefficient, ratio of drug level in adipose to plasma in Wistar Han rat at 1 to 2 mg/kg, iv infused for 10 to 20 hrs by LC-MS/MS analysis. Conditions: adipose/plasma.
Data set [5] can be described thus: Fraction unbound in Wistar Han rat liver at 2 uM incubated for 6 hrs by equilibrium dialysis method.
The nature of data set [6]: Total plasma concentration in Wistar Han rat at 1 to 2 mg/kg, iv infused for 10 to 20 hrs by LC-MS/MS analysis. Conditions: in vivo.
A short description of data set [7]: Fraction unbound in Wistar Han rat white adipose tissue at 2 uM incubated for 6 hrs by equilibrium dialysis method.
Data set [8] is described as follows: Drug concentration in total brain in Wistar Han rat at 1 to 2 mg/kg, iv infused for 10 to 20 hrs by LC-MS/MS analysis. Conditions: in vivo.
Data set [9] in a line: Fraction unbound in Wistar Han rat heart at 2 uM incubated for 6 hrs by equilibrium dialysis method.
Data set [10] is described as follows: Unbound tissue partition coefficient, ratio of drug level in liver to plasma in Wistar Han rat at 1 to 2 mg/kg, iv infused for 10 to 20 hrs by LC-MS/MS analysis. Conditions: liver/plasma.
A short description of data set [11]: Drug concentration in total skeletal muscle in Wistar Han rat at 1 to 2 mg/kg, iv infused for 10 to 20 hrs by LC-MS/MS analysis. Conditions: in vivo.
Data set [12] is described as follows: Apparent permeability of the compound across dog RRCK cells by MDCK-LE assay.
The nature of data set [13]: Fraction unbound in Wistar Han rat plasma at 2 uM incubated for 6 hrs by equilibrium dialysis method.
A short description of data set [14]: Drug concentration in total heart in Wistar Han rat at 1 to 2 mg/kg, iv infused for 10 to 20 hrs by LC-MS/MS analysis. The following applies: in vivo.
Data set [15] is described as follows: Fraction unbound in Wistar Han rat brain at 2 uM incubated for 6 hrs by equilibrium dialysis method.
A short description of data set [16]: Drug concentration in total white adipose tissue in Wistar Han rat at 1 to 2 mg/kg, iv infused for 10 to 20 hrs by LC-MS/MS analysis. Conditions: in vivo.
A short description of data set [17]: Unbound tissue partition coefficient, ratio of drug level in skeletal muscle to plasma in Wistar Han rat at 1 to 2 mg/kg, iv infused for 10 to 20 hrs by LC-MS/MS analysis. The following applies: skeletal muscle/plasma.
Data set [18] in a line: Unbound tissue partition coefficient, ratio of drug level in brain to plasma in Wistar Han rat at 1 to 2 mg/kg, iv infused for 10 to 20 hrs by LC-MS/MS analysis. Conditions: brain/plasma.

As to `COc1cc(/C=C2\CCCN([C@@H](C)c3ccc(F)cc3)C2=O)ccc1-n1cnc(C)c1`, the Ct was determined as 1200 ng/mL in [1]; 150 ng/mL in data set [8]; 180 ng/mL in [11]; 360 ng/mL in data set [14]; 1800 ng/mL in data set [16]. The Kp uu in data set [2] was determined as 0.77; in data set [4] it was 2.3; in data set [10], 7; in data set [17] it was 0.13; in [18] it was 0.4. Besides, the fraction unbound at 6 h, 2 µM is 0.0012 in [3]; 0.00939 in data set [5]; 0.00185 in data set [7]; 0.00363 in [9]; 0.00785 in data set [13]; 0.00429 in data set [15]. Further, the Cp in data set [6] is 210 ng/mL. The apparent permeability (Papp) in data set [12] was 16 ×10⁻⁶ cm/s.

Turning to `COc1ccc2ncc(F)c([C@@H](O)CC[C@@H]3CCN(CCSc4cccs4)C[C@@H]3C(=O)O)c2c1`, the Ct came out at 350 ng/mL in [1]; 0.69 ng/mL in data set [8]; 33 ng/mL in data set [11]; 77 ng/mL in [14]; 5.4 ng/mL in data set [16]. For the same compound, the Kp uu in data set [2] stood at 0.75; in data set [4] it was 0.26; in [10], 4.5; in [17], 0.29; in data set [18], 0.0032. Moreover, the fraction unbound at 6 h, 2 µM is 0.132 in data set [3]; 0.191 in data set [5]; 0.672 in data set [7]; 0.15 in data set [9]; 0.19 in data set [13]; 0.0945 in [15]. In [6], this compound showed a Cp of 79 ng/mL. The Papp in [12] is 9.8 ×10⁻⁶ cm/s.

In the case of `COc1ccc(-c2cc3c(C(=O)O)n[nH]c3cc2Cl)cc1`, the Ct stood at 140 ng/mL in data set [1]; 0.6 ng/mL in [8]; 1.9 ng/mL in data set [11]; 29 ng/mL in [14]; 1 ng/mL in [16]. Moreover, the Kp uu in data set [2] was found to be 1.8; in data set [4], 1.2; in [10], 6.5; in data set [17], 0.15; in [18] it was 0.017. The fraction unbound at 6 h, 2 µM in data set [3] stood at 0.0398; in [5], 0.0193; in data set [7] it was 0.334; in [9], 0.0256; in data set [13], 0.00439; in data set [15] it was 0.0135. In data set [6], this compound had a Cp of 96 ng/mL. Moreover, the Papp in data set [12] worked out at 8.8 ×10⁻⁶ cm/s.

Turning to `O=C(NC1CC1)c1nc2cccnn2c1-c1ccc2ncnn2c1`, the Ct in [1] was 210 ng/mL; in data set [8], 68 ng/mL; in [11], 100 ng/mL; in data set [14], 140 ng/mL; in data set [16] it was 29 ng/mL. Besides, the Kp uu in data set [2] came to 4; in data set [4], 0.95; in data set [10], 3.9; in data set [17] it was 1.3; in [18], 2.5. Besides, the fraction unbound at 6 h, 2 µM amounted to 0.304 in data set [3]; 0.439 in data set [5]; 0.709 in [7]; 0.746 in data set [9]; 0.511 in data set [13]; 0.886 in data set [15]. The compound also yielded a Cp in data set [6] of 50 ng/mL. Further, the Papp in data set [12] came to 27 ×10⁻⁶ cm/s.

As for `O=C(O)[C@@H]1CCN(C(=O)n2cnc(-c3ccc(-c4cnc(N5CCOCC5)nc4)cc3)n2)[C@@H](c2ccccc2)C1`, the Ct in data set [1] stood at 1.5 ng/mL; in [8] it was 0.38 ng/mL; in data set [11], 20 ng/mL; in data set [14], 80 ng/mL; in data set [16], 0.77 ng/mL. For the same compound, the Kp uu in [2] is 4.2; in data set [4], 0.024; in [10], 0.037; in [17], 1.1; in data set [18], 0.0018. Further, the fraction unbound at 6 h, 2 µM is 0.017 in [3]; 0.00824 in data set [5]; 0.165 in data set [7]; 0.0159 in data set [9]; 0.00353 in data set [13]; 0.00874 in data set [15]. In [6], this compound returned a Cp of 88 ng/mL. Also, in [12], the Papp was found to be 17 ×10⁻⁶ cm/s.

Take `CC(C)(O)CS(=O)(=O)c1ccc2c(c1)nc(C(C)(C)C)n2CC1CCOCC1`: the Ct in data set [1] came out at 320 ng/mL; in [8], 6.2 ng/mL; in data set [11] it was 60 ng/mL; in data set [14], 91 ng/mL; in [16], 55 ng/mL. Also, the Kp uu in data set [2] is 1.1; in data set [4] it was 1.7; in [10] it was 5.4; in data set [17], 0.48; in data set [18] it was 0.13. The unbound share (fraction unbound) at 6 h, 2 µM in [3] came out at 0.203; in data set [5], 0.437; in data set [7], 0.786; in data set [9] it was 0.321; in [13] it was 0.469; in data set [15] it was 0.538. The compound also showed a Cp in data set [6] of 55 ng/mL. Also, in [12], the Papp was found to be 28 ×10⁻⁶ cm/s.

As to `O=C(O)[C@@H]1CCCN(C(=O)n2cnc(-c3ccc(-c4cnc(N5CCOCC5)nc4)cc3)n2)[C@H]1c1ccccc1`, the Ct in [1] is 860 ng/mL; in [8], 1.5 ng/mL; in data set [11] it was 18 ng/mL; in data set [14], 59 ng/mL; in data set [16], 8 ng/mL. Further, the Kp uu in data set [2] came out at 1.1; in data set [4], 2.5; in [10], 18; in data set [17], 0.3; in data set [18], 0.0089. The fraction unbound at 6 h, 2 µM in [3] stood at 0.00554; in data set [5] it was 0.00643; in [7] it was 0.089; in data set [9] it was 0.00542; in data set [13] it was 0.00273; in data set [15], 0.00251. In addition, the Cp in data set [6] is 120 ng/mL. In addition, the Papp in data set [12] came to 7.9 ×10⁻⁶ cm/s.

In the case of `Cc1ccc(CC(C)(C)NC[C@@H](O)CO[C@H](C)c2ccccc2-c2ccc(C(=O)O)c(C)c2)cc1F`, the Ct in data set [1] is 220 ng/mL; in data set [8] it was 0.38 ng/mL; in [11], 17 ng/mL; in [14] it was 56 ng/mL; in data set [16], 8 ng/mL. In addition, the Kp uu in data set [2] came to 1.8; in data set [4], 2.5; in [10], 7.1; in data set [17], 0.85; in data set [18], 0.0018. The unbound share (fraction unbound) at 6 h, 2 µM in data set [3] was 0.021; in data set [5] it was 0.0134; in data set [7] it was 0.126; in [9] it was 0.0129; in [13], 0.00353; in data set [15] it was 0.0111. Further, the Cp in data set [6] stood at 120 ng/mL. Moreover, the Papp in [12] is 4.4 ×10⁻⁶ cm/s.

In general, fraction unbound refers to the share of the substance not bound to proteins or other matrix. The Papp is a coefficient for how fast a substance crosses the barrier.
